Data published in patent US20080105961A1, “Ligands of the Molecule Fit (Agt-121) and their Pharmaceutical Use” (priority 2004, published 2008).
Marks after values point to notes of the source that are not given here.

Legend:
FIT mRNA [1] = assay: ICV infusion of FIT antisense ODN in Psammomys obesus: food intake and body weight; format: in vivo
Procedure: To further investigate the orexigenic properties of FIT intracerebroventricular (ICV) antisense suppression of FIT was performed. This involved the infusion of FIT antisense oligonucleotides (ODNs) directly into the lateral ventricle space of the brain to suppress endogenous FIT mRNA levels. The effects of this treatment on food intake and body weight were measured and compared to control animals infused with a jumbled sequence ODN, or saline alone. 18 week old, male, lean, normal glucose tolerant (nGT) P. obesus animals were utilised for this study and infused with either saline, FIT antisense ODN, or jumbled ODN at 24 μg/day for four days. The sequence of the FIT antisense ODN was 5′-mu*mg*mg*mc*ma*g*a*a*t*t*g*c*a*mu*mu*mc*mc*mu*-3′, and the jumbled ODN 5′-mc*mg*mc*ma*mc*t*t*a*g*c*t*a*c*mu*mu*mg*mc*mu-3′, where m indicates the presence of a 2′O-Methyl-modified base, and * indicates a phosphorothioate linkage.

melanocortin receptor = assay: Feeding response to ICV injection of SHU9119 after three days of ODN or saline infusion; format: in vivo, Sprague Dawley rats; conditions: mean ± SEM
Description: To further analyse the link between FIT and the melanocortin system, the feeding response of Sprague Dawley rats to an ICV injection of SHU9119, a melanocortin receptor antagonist and known feeding stimulator was investigated. After three days of FIT antisense treatment, jumbled oligonucleotide or saline infusion, responses were compared to rats receiving an ICV injection of saline vehicle rather than SHU9119.

FIT mRNA [2] = assay: Hypothalamic FIT gene expression by semi-quantitative RT-PCR in ICV antisense-treated rats; format: in vivo, Sprague Dawley rats; conditions: hypothalamus, ICV-treated Sprague Dawley rats, mean ± SEM
Procedure: To confirm endogenous suppression of FIT in antisense-treated Sprague Dawley rats, FIT mRNA in the hypothalamus of these animals was measured.

FIT mRNA [3] = assay: Metabolic heat production by indirect calorimetry (FIG. 1); format: in vivo, Sprague Dawley rats; conditions: pair fed, last half of dark phase and majority of light phase
Description: FIG. 1 is a graphical representation of metabolic heat production in Sprague Dawley rats after three days of FIT antisense-treatment compared to jumbled ad libitum fed and jumbled pair fed rats. *p<0.05 pair fed compared to jumbled group, #p<0.05 pair fed compared to FIT antisense-treated group, ̂p<0.05 compared to both jumbled and FIT antisense-treated groups. Data are mean ±SEM.
To further dissect the nature of the inability to reduce TEE levels after FIT antisense treatment, metabolic heat production was measured by indirect calorimetry.

FIT mRNA [4] = assay: Pair-feeding study with indirect calorimetry (24 h): body weight, food intake, total energy expenditure; format: in vivo, Sprague Dawley rats; conditions: mean ± SEM; for Day 0 BW: baseline
Procedure: To investigate the mechanism of weight loss after FIT antisense treatment, a group of Sprague Dawley rats were pair fed to the average daily food intake levels of FIT antisense-treated rats, and indirect calorimetry (24 h) was performed before and after FIT antisense or jumbled ODN ICV infusion.
Total energy expenditure (TEE) was calculated from measurements of oxygen consumption and carbon dioxide production using indirect calorimetry (Ferrannini, 1988). Due to differences in body weight between the three groups of rats, TEE levels were calculated relative to whole body mass of the animals. […] FIT antisense-treated rats therefore have an inappropriately high level of energy expenditure for their body weight.

FIT mRNA [5] = assay: ICV infusion of FIT antisense ODN in Sprague Dawley rats: food intake and body weight; format: in vivo
Procedure: To confirm the appetite-suppressing and weight-reducing effects of central FIT suppression in an animal model other than P. obesus, the inventors performed the same experiments in Sprague Dawley rats. Male, 12 week old Sprague Dawley rats were infused with either saline, FIT antisense ODN, or jumbled ODN at 24 μg/day for four days. The sequence of the FIT antisense ODN and the jumbled ODN are the same as in Example 2 above.

MC4R = target: T1, MC4R (Rattus norvegicus, UniProt P70596); assay: Feeding response to MT II after ODN or saline infusion; format: in vivo, Sprague Dawley rats; conditions: mean ± SEM
T1 construct: from tissue; host or cells: living Sprague Dawley rats (brain)
Procedure: To further investigate this relationship, antisense suppression of FIT in Sprague Dawley rats was again performed and these animals' responses to administration of the α-MSH analog MT II, a synthetic agonist of the MC4R and known suppressor of feeding. MT II effects on food intake and body weight in saline and jumbled ODN-treated control rats, as well as in FIT antisense-treated rats was measured.

[6] = ICV 24 μg/day, day 1, mean ± SEM
[7] = ICV 24 μg/day, day 2, mean ± SEM
[8] = ICV 24 μg/day, day 3, mean ± SEM
[9] = ICV 24 μg/day, day 4, mean ± SEM
[10] = baseline body weight, mean ± SEM
[11] = change compared to day 0, mean ± SEM
[12] = not pair fed (jumbled group ad libitum fed)
[13] = pair fed to food intake of FIT antisense-treated rats

T1 sequence (P70596 whole entry, the tested form may be a part): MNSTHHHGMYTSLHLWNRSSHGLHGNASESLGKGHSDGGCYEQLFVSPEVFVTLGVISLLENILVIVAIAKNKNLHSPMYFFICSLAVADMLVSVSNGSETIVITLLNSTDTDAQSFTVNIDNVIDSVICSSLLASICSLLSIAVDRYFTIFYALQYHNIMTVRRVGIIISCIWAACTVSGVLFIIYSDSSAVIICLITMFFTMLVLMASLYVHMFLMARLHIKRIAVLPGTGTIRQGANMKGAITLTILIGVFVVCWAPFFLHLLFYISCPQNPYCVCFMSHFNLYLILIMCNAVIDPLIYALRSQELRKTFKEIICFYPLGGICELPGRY

## 5′-mc*mg*mc*ma*mc*t*t*a*g*c*t*a*c*mu*mu*mg*mc*mu-3′ [Jumbled, reference compound]
FIT mRNA [1]; [6]
  Cumulative food intake, Day 1 Food: 8.9 ± 0.5^a g
FIT mRNA [1]; [7]
  Cumulative food intake, Day 2 Food: 17.3 ± 1.0^a g
FIT mRNA [1]; [8]
  Cumulative food intake, Day 3 Food: 27.3 ± 1.5^a g
FIT mRNA [1]; [9]
  Cumulative food intake, Day 4 Food: 38.7 ± 2.7 g
FIT mRNA [1]; ICV 24 μg/day, mean ± SEM
  Day 1 BW: 188 ± 9 g
  Day 2 BW: 188 ± 9 g
  Day 3 BW: 187 ± 9 g
  Day 4 BW: 187 ± 9 g
FIT mRNA [1]; [10]
  Day 0 BW: 191 ± 9 g
FIT mRNA [1]; [11]
  Day 1 ΔBW: -3.8 ± 0.7 g
  Day 2 ΔBW: -3.3 ± 0.8 g
  Day 3 ΔBW: -4.0 ± 1.6 g
  Day 4 ΔBW: -3.5 ± 1.7 g
Melanocortin receptor; 48 hr food intake post minus pre injection
  Δ FI: 0.03 ± 0.02 g/g BW
Melanocortin receptor; food intake relative to body weight, after ICV SHU9119 or vehicle injection
  48 hr FI post injection: 0.13 ± 0.01 g/g BW
Melanocortin receptor; food intake relative to body weight, during ICV infusion, before SHU9119 or vehicle injection
  48 hr FI pre injection: 0.10 ± 0.01 g/g BW
FIT mRNA [2]
  FIT gene expression: 8.4 ± 0.6 arbitrary units
FIT mRNA [3]
  metabolic heat production compared to jumbled-treated ad libitum fed and FIT antisense-treated rats: significantly reduced heat production
FIT mRNA [4]; [12]
  Day 0 BW: 404 ± 31 g
  Day 4 BW: 386 ± 24 g
  Food Intake: 81.1 ± 10.3 g
  Δ BW: -17.3 ± 8.9 g
FIT mRNA [4]; not pair fed
  Δ TEE: -21 ± 17 kJ/day/kg
FIT mRNA [4]; not pair fed, total energy expenditure after ICV infusion
  Post TEE: 492 ± 61 kJ/day/kg
FIT mRNA [4]; not pair fed, total energy expenditure before ICV infusion
  Pre TEE: 513 ± 62 kJ/day/kg
FIT mRNA [4]; [13]
  Day 0 BW: 357 ± 9 g
  Day 4 BW: 317 ± 7^a g
  Food Intake: 39.1 ± 3.2^a g
  Δ BW: -39.7 ± 9.9 g
FIT mRNA [4]; pair fed, after ICV infusion
  Post TEE: 456 ± 30^c kJ/day/kg
FIT mRNA [4]; pair fed, before ICV infusion
  Pre TEE: 556 ± 59 kJ/day/kg
FIT mRNA [4]; pair fed
  Δ TEE: -100 ± 28 kJ/day/kg
FIT mRNA [5]; [6]
  Cumulative food intake, Day 1 Food: 18.7 ± 2.4 g
FIT mRNA [5]; [7]
  Cumulative food intake, Day 2 Food: 44.7 ± 4.1 g
FIT mRNA [5]; [8]
  Cumulative food intake, Day 3 Food: 72.6 ± 5.1 g
FIT mRNA [5]; [9]
  Cumulative food intake, Day 4 Food: 101.5 ± 6.1 g
FIT mRNA [5]; ICV 24 μg/day, mean ± SEM
  Day 1 BW: 457 ± 24 g
  Day 2 BW: 468 ± 23 g
  Day 3 BW: 473 ± 23 g
  Day 4 BW: 477 ± 22 g
FIT mRNA [5]; [10]
  Day 0 BW: 465 ± 24 g
FIT mRNA [5]; [11]
  Day 1 ΔBW: -7.8 ± 3.6 g
  Day 2 ΔBW: 3.5 ± 3.7 g
  Day 3 ΔBW: 6.3 ± 3.5 g
  Day 4 ΔBW: 12.0 ± 4.1 g
MC4R; 24 hr food intake post minus pre injection
  Δ FI: −0.02 ± 0.01 g/g BW
MC4R; food intake after MT II or vehicle injection
  24 hr FI post injection: 0.04 ± 0.01 g/g BW
MC4R; food intake, during ICV infusion, before MT II or vehicle injection
  24 hr FI pre injection: 0.06 ± 0.01 g/g BW
